Results published in patent US6555091B1, “Polypeptide capable of reacting with antibodies of patients suffering from multiple sclerosis and uses” (Bio Merieux, priority 1997, dated 2003).
No end group written: not given here.

What was measured:
Type in all cases: binding, human
[1] = tested on: IgM of cerebrospinal fluids from patients suffering from MS; experiment: ELISA of pentadecapeptide phage clones, IgM response of CSFs (FIG. 6); settings: CSF 4 and CSF 7 (MS), CSF 12 (other neurological disease), CSFs diluted 1/10
Description: FIG. 6 represents the IgM response of the CSFs with respect to phages expressing the sequences SEQ ID NO: 14 (EPM), SEQ ID NO: 13 (FCP), SEQ ID NO: 16 (SRG), SEQ ID NO: 17 (QSP) , with respect to the wild-type phage (without an expressed sequence) and another nonspecific sequence (RTG); this representation is given by a histogram grouping together the results expressed as optical density values obtained for each CSF reduced by those obtained with PBS buffer controls in place of the phages; the immunoreactivity of the phage clones is tested in ELISA as described in Example 2, with respect to CSFs diluted 1/10; CSF 12 corresponds to a patient suffering from a neurological disease other than MS; CSF 4 and CSF 7 correspond to two patients suffering from MS.
In a first instance, 100 μl of anti-M13 phage antibodies diluted 1/500 in 0.1M NaHCO3, pH 8.6 (marketed by Prinn, Inc. Boulder, Colo. 80303) are bound overnight in the wells of Nunc maxisorb (trade name) microtiter plates. […] The optical density is measured on a BioMérieux plate reader at 492 nm. The IgM response is determined by addition of 100 μl of biotinylated anti-IgM conjugate diluted 1/4000 (Biomérieux monoclonal antibody) followed by the addition, after the washes, of the streptavidin-peroxidase conjugate diluted 1/10,000. […]

[2] = tested on: IgG of CSF from patients suffering from MS; experiment: ELISA of polypeptides, IgG response of CSFs diluted 1/10 (Table 5, FIGS. 7A and 7B); set-up: key to IgG recognition by CSF: positive (+) if the OD value at 492 nm for a 1/10 dilution of the CSF is greater than the mean values obtained for the CSFs from the ND patients+3 times the standard deviation; settings: for number of positive (+) CSFs: total line, 15 MS patients, CSF 1/10
Description: FIGS. 7A and 7B represents the IgG response of the polypeptides whose peptide sequence consists of, respectively, SEQ ID NO: 13, SEQ ID NO: 12, SEQ ID NO: 14, SEQ ID NO: 16, SEQ ID NO: 19 and SEQ ID NO: 15, with respect to CSFs diluted 1/10; the results assembled in the appended Table 5 are expressed by the difference in the optical density values obtained for the polypeptide tested and the values obtained for the HIV polypeptide used as control; ND corresponds to patients suffering from a neurological disease other than MS, and MS* corresponds to patients suffering from MS.
Table 5, illustrated in FIGS. 7A and 7B, collates the results on the specific recognition of CSF from patients suffering from MS for 6 polypeptides of the invention, SEQ ID NO: 13, SEQ ID NO: 12, SEQ ID NO: 14, SEQ ID NO: 16, SEQ ID NO: 19 and SEQ ID NO: 15.
For each polypeptide tested, identified in Table 5 by its peptide sequence, the CSFs from patients 1-22 suffering from Ms are determined as positive (+) if the OD value at 492 nm for a 1/10 dilution of the CSF is greater than the mean values obtained for the CSFs from the ND patients+3 times the standard deviation.

[3] = tested on: IgG of pool of positive sera (MS remission sera); experiment: ELISA of pentadecapeptide phage clones, pool of positive sera versus pool of negative sera; settings: phage clones carrying the sequence; 1/200 serum dilution; pool of positive sera compared with pool of negative sera
Description: In a first instance, 100 μl of anti-M13 phage antibodies diluted 1/500 in 0.1M NaHCO3, pH 8.6 (marketed by Prinn, Inc. Boulder, Colo. 80303) are bound overnight in the wells of Nunc maxisorb (trade name) microtiter plates. After three washes with TBS/0.05% Tween, the plates are passivated for 1 hour at 37° C. with 250 μl of TBS containing 10% goat serum and again washed three times with the same buffer. 100 μl of various purified phage clones are then incubated for 2 hours at 37° C. in the wells. […] After four washes in TBS/0.05% Tween, 100 μl of peroxidase-labeled anti-human IgG conjugate diluted 1/10,000 (marketed by Jackson Immuno Research Laboratories Inc.) are added before an incubation for one hour at 37° C. […] The staining reaction is interrupted by the addition of 50 μl of 1.8N sulfuric acid. The optical density is measured on a BioMérieux plate reader at 492 nm. The IgM response is determined by addition of 100 μl of biotinylated anti-IgM conjugate diluted 1/4000 (Biomérieux monoclonal antibody) followed by the addition, after the washes, of the streptavidin-peroxidase conjugate diluted 1/10,000.
A library of pentadecapeptides carried on 300 copies of the phage protein VIII was constructed on the same principle as the hexapeptide library using the vector f88-4 according to the work by Greewood et al. (J. Biol. Mol. 1991). […]

| Sequence | recognition of the phage clone by CSFs [1] | IgG recognition by CSF ([2]; CSF of MS patient 1, 1/10) | IgG recognition by CSF ([2]; CSF of MS patient 2, 1/10) | IgG recognition by CSF ([2]; CSF of MS patient 3, 1/10) | IgG recognition by CSF ([2]; CSF of MS patient 5, 1/10) | IgG recognition by CSF ([2]; CSF of MS patient 7, 1/10) | IgG recognition by CSF ([2]; CSF of MS patient 10, 1/10) | IgG recognition by CSF ([2]; CSF of MS patient 18, 1/10) | IgG recognition by CSF ([2]; CSF of MS patient 21, 1/10) | number of positive (+) CSFs [2] | IgG recognition by CSF ([2]; CSF of MS patient 8, 1/10) | IgG recognition by CSF ([2]; CSF of MS patient 20, 1/10) | average positive IgG response [3] |
| --- | --- | --- | --- | --- | --- | --- | --- | --- | --- | --- | --- | --- | --- |
| EPMTPHQWITLYRSY (MSRV) [SEQ ID NO: 14] | recognized only by CSF 7 | + | + | + | + | + | + | + | + | 8+ | – | – | – |
| FCPPILPYSAWCPVP (MSRV) [SEQ ID NO: 13] | recognized specifically by CSFs 7 and 4 | + | + | + | + | + | + | + | + | 10+ | + | + | – |
| NACYVDLFLGASVCP (cysteine pairing not given here) [SEQ ID NO: 10, pentadecapeptide carried by phage clones] | – | – | – | – | – | – | – | – | – | – | – | – | 0.069 |
| SSAKSHCYAFCSGLP (cysteine pairing not given here) [SEQ ID NO: 11, pentadecapeptide carried by phage clones] | – | – | – | – | – | – | – | – | – | – | – | – | 0.248 |
